In US8771975B2, “Quantitation of GCP activity in biological samples” (The Johns Hopkins University, priority 2011, dated 2014):
Read-outs that look alike come from different tables or passages of the source.

Experiments:
[1] = system: GCP; assay: GCP enzyme activity assay with human skin biopsy pellet ([3H]-NAAG cleavage); assay type: biochemical; conditions: 2-PMPA 1 μM added to assay mixture; [3H]-NAAG 70 nM, 37° C.
Experimental: Punch skin biopsies (3 mm) were obtained from the distal thigh of healthy human volunteers after anesthesia with 0.5 cc 2% lidocaine subcutaneous injection. Samples were placed in cold Tris buffer (pH 7.4) and GCP enzymatic activity was carried out within 1 hour of collection. The skin were homogenized, the homogenate was centrifuged and the pellet was used as source of GCP in the enzyme activity assay. Briefly, human skin biopsies were sonicated in Tris buffer (pH 7.4, 40 mM, 0.5 mL) for 1 minute in ice. The mixture was centrifuged for 2 minutes at 16000×g; the supernantant (containing endogenous […]) was removed and the resulting pellet (containing GCP) was reconstituted in 70 μL assay buffer (Tris pH 7.4, 40 mM containing 1 mM CoCl2) and used as source of GCP in the activity assay. Reconstituted pellet was then incubated with [^3H] […] The radioactivity in each vial corresponding to [^3H]-glutamate was determined via a Beckman LS-6000IC scintillation counter. Radioactivity values in dpm were converted to fmoles of glutamate using the relation 1 pCi/2.2 dpm and the specific activity of [^3H]-glutamate (same as that of [^3H]-NAAG: 1 fmole/50 pCi). As a result, if 16711 dpm [^3H]-glutamate were measured after incubating 10 mg tissue for 1 h, the normalized activity would be: 16711 dpm×(1 pCi/2.2 dpm)×(1 fmole/50 pCi)/10 mg tissue=15 fmole/h/mg tissue. […]

[2] = biological target: T1, GCP (Rattus norvegicus, UniProt P70627); assay type: in vivo; conditions: 1 hour after administration
T1 construct: Reconstituted pellet preparations from rat paw pads were used as source of GCP II; from tissue; host or cells: male Wistar rat paw pad skin (plantar hindpaw), 16000xg pellet; animals dosed i.p. with 2-PMPA
T1 sequence (P70627 whole entry): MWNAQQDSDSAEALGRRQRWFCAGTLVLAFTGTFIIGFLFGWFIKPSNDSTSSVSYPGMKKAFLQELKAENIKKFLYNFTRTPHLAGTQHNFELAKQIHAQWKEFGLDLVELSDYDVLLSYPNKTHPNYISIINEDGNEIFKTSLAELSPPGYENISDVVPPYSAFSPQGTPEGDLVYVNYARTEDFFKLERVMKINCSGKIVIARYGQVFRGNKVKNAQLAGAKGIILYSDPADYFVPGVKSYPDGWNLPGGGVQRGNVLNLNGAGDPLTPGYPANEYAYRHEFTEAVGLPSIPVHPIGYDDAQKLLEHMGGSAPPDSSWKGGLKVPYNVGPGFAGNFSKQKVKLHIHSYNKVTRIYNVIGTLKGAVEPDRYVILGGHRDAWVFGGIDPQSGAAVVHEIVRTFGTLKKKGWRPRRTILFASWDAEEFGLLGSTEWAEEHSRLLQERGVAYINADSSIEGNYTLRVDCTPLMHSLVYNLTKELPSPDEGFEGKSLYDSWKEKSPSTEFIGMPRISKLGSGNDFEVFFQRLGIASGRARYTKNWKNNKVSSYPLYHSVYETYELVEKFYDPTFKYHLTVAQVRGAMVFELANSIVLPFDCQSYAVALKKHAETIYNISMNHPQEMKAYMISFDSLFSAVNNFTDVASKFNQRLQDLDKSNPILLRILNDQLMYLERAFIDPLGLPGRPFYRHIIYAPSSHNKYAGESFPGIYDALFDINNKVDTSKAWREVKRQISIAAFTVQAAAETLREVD
Experimental: A determination of GCP activity was carried out using male Wistar rat paw pads. Skin was collected from the planter hindpaw by 3 mm skin biopsy dissection and sonicated for 2 minutes in ice. The mixture was centrifuged for 2 minutes at 16000×g and the resulting pellet was reconstituted similar to the pellets obtained from the human skin dissections. Reconstituted pellet preparations from rat paw pads were used as source of GCP II and incubated with [^3H] NAAG, as described above for the human skin samples.
In order to determine if GCP activity in skin in vivo could be inhibited by peripheral administration of 2-PMPA, rats were administered vehicle (HEPES saline, pH 7, 50 mM) or 2-PMPA (1, 10 and 100 mg/kg, i.p.) using a dosing volume of 2 mL/kg. There were 10 animals in each group. Animals were sacrificed 1 hour after 2-PMPA or vehicle administration. […]

[3] = system: GCP; assay: GCP activity in rat sciatic nerve after peripheral (i.p.) administration; assay type: in vivo; conditions: 1 hour after administration
Description: Sciatic nerve is the target tissue for GCP inhibitors in clinical trials for peripheral neuropathy and neuropathic pain. To obtain sciatic nerve samples, 1-2 cm incisions were made to the skin on top of the rat's mid-thigh so that sciatic nerve, gluteus superficialis muscle and biceps femoris muscle were exposed. The three were then separated and 5 mm of sciatic nerve was removed and analyzed as described above for the human skin and rat paw pad samples. GCP activity in sciatic nerve preparations from animals treated with 1, 10 and 100 mg/kg 2-PMPA was reduced to 92±11, 35±6 and 10±4% respectively compared to activity in sciatic nerve isolated from control animals (FIG. 3). Albeit to a different extent, GCP inhibition in sciatic nerve is attained at similar 2-PMPA doses (10 and 100 mg/kg i.p.) as in footpad tissue.

[4] = 2-PMPA level in paw pads by LC-MS/MS; assay type: in vivo, rat; conditions: 100 mg/kg i.p., 1 hour after administration, n=9, LC-MS/MS
Experimental: The presence of 2-PMPA in skin was determined. Animals were given 2-PMPA (100 mg/kg, i.p.), sacrificed 1 hour after compound administration and paw pads isolated for direct determination of 2-PMPA levels by LC-MS/MS. Since 2-PMPA detection by mass spectrometry has low sensitivity due to ion suppression, samples from animals that had received 100 mg/kg 2-PMPA rather than 10 mg/kg were analyzed to increase the probability of detecting 2-PMPA.
Briefly, frozen samples were thawed in a water bath at ambient temperature and subjected to a liquid extraction using MeOH. Samples were placed in brown glass vials containing 500 μL of 100% MeOH. […] The sample was transferred to a 250 μL polypropylene auto sampler vial sealed with a Teflon crimp cap, and a volume of 50 μL was injected onto the HPLC instrument for quantitative analysis using a temperature-controlled auto sampling device operating at 10° C.
Chromatographic analysis was performed using a Waters ACQUITY UPLC (Milford, Mass., USA). […] The column effluent was monitored using an AB SCIEX TRIPLE QUAD 5500 triple-quadrupole mass-spectrometric detector (Applied Biosystems, Foster City, Calif., USA). […] The daughter ions for 2-PMPA (m/z 191.1) and the internal standard (m/z 255.1) were monitored through the third quadrupole (Q3). […]

O=C(O)CCC(CP(=O)(O)O)C(=O)O (stereo not shown) [2-PMPA]
inhibition of GCP activity in human skin pellet preparations [1]: 90%
GCP activity in paw pads compared to control animals ([2]; 10 mg/kg i.p.): 60±11%
GCP activity in paw pads compared to control animals ([2]; 100 mg/kg i.p.): 47±11%
GCP activity in sciatic nerve preparations compared to control animals ([3]; 1 mg/kg i.p.): 92±11%
GCP activity in sciatic nerve preparations compared to control animals ([3]; 10 mg/kg i.p.): 35±6%
GCP activity in sciatic nerve preparations compared to control animals ([3]; 100 mg/kg i.p.): 10±4%
2-PMPA concentration in paw pads [4]: 38±5 μg/g tissue
